The values below come from US5082937A, “Benzodiazepines and applications in therapeutic practice” (Jouveinal S.A., priority 1989, dated 1992).

By IC50 is commonly meant the midpoint of a concentration-inhibition curve. One may read the ED50 as the midpoint of the dose-response relation. The low end stands for an effect at a small dose, the high end for a need for a large dose.

Where two headings read alike, the source gives them in different places.

In experiment [1] the target is T1, gastrin receptor (Cavia porcellus, UniProt H0VZC5).
T1 construct: guinea-pig gastric glands; from tissue; host or cells: gastric glands of male guinea pigs (animals from COB LABO)
T1 sequence (H0VZC5 1-426): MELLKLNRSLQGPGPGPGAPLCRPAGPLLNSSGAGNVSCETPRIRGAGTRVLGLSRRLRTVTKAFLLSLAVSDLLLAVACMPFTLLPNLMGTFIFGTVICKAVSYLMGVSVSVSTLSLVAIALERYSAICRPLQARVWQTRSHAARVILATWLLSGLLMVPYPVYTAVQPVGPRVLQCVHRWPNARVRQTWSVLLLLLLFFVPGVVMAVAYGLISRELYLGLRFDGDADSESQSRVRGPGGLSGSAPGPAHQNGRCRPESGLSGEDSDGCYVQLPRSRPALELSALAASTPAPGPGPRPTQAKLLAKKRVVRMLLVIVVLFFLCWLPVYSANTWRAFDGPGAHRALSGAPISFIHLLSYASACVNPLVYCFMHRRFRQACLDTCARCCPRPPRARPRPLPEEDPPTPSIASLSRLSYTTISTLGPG
The experiment in a line: Binding affinity for the gastrin receptor, guinea-pig gastric glands, iodine-125-labelled gastrin. From the text: (§1) The "in vitro" studies consisted in determining the binding affinity of the compounds of the invention for the cholecystokinin and gastrin receptors.
(§2) The aim of these experiments was to determine the solution concentrations of products of formula (I) which were capable of inhibiting in relation to the receptors in question fifty percent of the cholecystokinin bonds, labelled with […] (abbreviated below as [1251]-CCK8 sulphate) or in the case of the iodine-125-labelled gastrin receptor with the following receptors:
(§3) guinea-pig gastric glands (males, COB LABO, 325-350 g) in accordance with the method described by PRAISSMAN, M., M. E. WALDEN and C. PELLECHIA. Journal of Receptor Research, 1983 3 647-665 (gastrin receptor).
(§4) The unit of measurement is the nanomole.

The target in experiment [2] is T2, central cholecystokinin receptor: CCK-B (Cavia porcellus, UniProt H0VZC5).
T2 construct: guinea-pig brain membranes; from tissue; host or cells: brain membranes of male guinea pigs (animals from COBLABO)
T2 sequence (H0VZC5 1-426): T1 sequence (H0VZC5 1-426)
In words: Binding affinity for the central cholecystokinin receptor (CCK B), guinea-pig brain membranes, inhibition of labelled [125I]-CCK8 sulphate binding.
From the text: (§5) The "in vitro" studies consisted in determining the binding affinity of the compounds of the invention for the cholecystokinin and gastrin receptors. […]
(§6) guinea-pig brain membranes (males, COBLABO, 325-350 g) (central cholecystokinin receptor: CCK-B).
(§7) in accordance with the experimental protocol described by INNIS, R. B. and S. M. SNYDER, Eur. J. Pharmacol., 1980 65 123-124.
as §4

Experiment [3] has as its target T3, peripheral cholecystokinin receptor: CCK-A (Rattus norvegicus, UniProt P30551).
T3 construct: plasma membranes of the rat pancreas; from tissue; host or cells: pancreas plasma membranes of male SD rats (animals from IFFA CREDO)
T3 sequence (P30551 1-444): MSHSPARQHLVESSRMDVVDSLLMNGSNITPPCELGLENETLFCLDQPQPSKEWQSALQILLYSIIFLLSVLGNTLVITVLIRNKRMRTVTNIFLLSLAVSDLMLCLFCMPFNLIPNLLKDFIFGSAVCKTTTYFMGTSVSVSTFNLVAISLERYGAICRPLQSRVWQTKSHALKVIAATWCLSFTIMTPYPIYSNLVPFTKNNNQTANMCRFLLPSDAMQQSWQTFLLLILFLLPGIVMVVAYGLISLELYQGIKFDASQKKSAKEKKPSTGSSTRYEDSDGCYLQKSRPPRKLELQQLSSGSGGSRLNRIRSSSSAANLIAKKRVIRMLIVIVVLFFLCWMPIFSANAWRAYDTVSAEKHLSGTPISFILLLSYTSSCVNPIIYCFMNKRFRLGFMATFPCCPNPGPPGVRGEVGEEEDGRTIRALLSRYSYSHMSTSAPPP
In words: Binding affinity for the peripheral cholecystokinin receptor (CCK A), plasma membranes of the rat pancreas, inhibition of labelled [125I]-CCK8 sulphate binding.
From the text: as §1, §2
plasma membranes of the rat pancreas (male SD, rats, IFFA CREDO 200-225 g) (peripheral cholecystokinin receptor: CCK-A),
as §7, §4

For experiment [4], the system named is gastric evacuation, slowed down by CCK-8 (peripheral receptor CCK-A). The experiment in a line: Gastric evacuation slowed down by CCK-8 in the mouse. Conditions: oral; for ED50: Mus musculus, SWISS male mice, CCK-8 80 μg/kg subcutaneous. It is filed as in vivo. As for the experimental part:
The antagonist activity of CCK on the digestive motor effects of the hormone has been examined in relation to the gastric evacuation, slowed down by the subcutaneous administration of CCK-8 (80 μg/kg) in SWISS male mice (IFFA CREDO 16-20 g), using the technique described by Lotti, V. J., D. J. Cerino, P. J. Kling and R. S. L. Chang. Life Sciences, 1986 39, 1631-1638.

The subject of experiment [5] is gastrin-induced acid secretion. The experiment in a line: Gastrin-induced acid secretion in the rat (chronic gastric fistula, pentagastrin perfusion). Type of experiment: in vivo. Conditions: 1 mg/kg oral; for Gastric secretion % inhibition: SD male rat, pentagastrin 6 μg/kg/h i.v. The method, then: The activity of the products of the invention in relation to gastrin-induced acid secretion in the rat has been studied by the method described by Pascaud, X. P. , A. R. Roger and M. J. H. Genton. Digestion, […] 16 57-68. The method consists in collecting the gastric acid secretion over two consecutive 2 hour periods in SD male rats (IFFA CREDO 250-300 g), provided with a chronic gastric fistula and continuously perfused i.v. with a pentagastrin solution (Peptavlon, ICI, 6 μg/kg/h). The inhibition of this secretion by the oral administration of 1 mg/kg product of the invention has been determined.

Experiment [6] concerns central cholecystokinin receptor: CCK-B. In words: Binding affinity for the central cholecystokinin receptor (CCK B), guinea-pig brain membranes, inhibition of labelled [125I]-CCK8 sulphate binding. The settings on record: for Selectivity CCK B/CCK A: IC50 CCK A / IC50 CCK B.
From the text: as §5, §6, §7, §4

Experiment [7] concerns gastrin receptor. The experiment in a line: Binding affinity for the gastrin receptor, guinea-pig gastric glands, iodine-125-labelled gastrin. Conditions: for Selectivity GASTRIN/CCK A: IC50 CCK A / IC50 gastrin.
From the text: as §1, §2, §3, §4

In a further experiment the test system is gastrin receptors. Conditions: published, in vitro, cited from earlier work.
Experiment [8] deals with A receptors of cholecystokinin. Conditions: published, in vitro; cited from earlier work.
Where [9] appears, read: guinea-pig gastric glands; Table I; read-out: IC50 Receptor bond Gastrin.
The mark [10] stands for this setting: guinea-pig brain membranes; Table I; read-out: IC50 Receptor bond CCK B.
Where [11] appears, read: in comparison with compound XXa.

Consider `Cc1cccc(NC(=O)NC2N=C(c3ccccc3)c3cccc4c3N(CC4)C2=O)c1` (racemic) [Example 1, (4R,S)-N-(keto-3-phenyl-6-tetrahydro-1,2,3,4-pyrrolo[3,2,1-j,k]benzodiazepine[1,4]-yl-4)-N'-(methyl-3-phenyl-)-urea], for which the values for the IC50 (at gastrin receptor [1] (setting [9]); in [2] (setting [10]); in experiment [3]) were 14.4 nM, 431 nM and 59.6 nM, respectively.
In the case of `Cc1cccc(NC(=O)NC2N=C(c3ccccc3)c3cccc4c3N(CCC4)C2=O)c1` (racemic) [Example 5, (5R,S)-N-(keto-4-phenyl-7-hexahydro-1,2,3,3a,4,5-pyrido [3,2,1-j,k]benzodiazepine-[1,4]-yl-5)-N'-(methyl-3-phenyl-)-urea], the figures for the IC50 (at gastrin receptor [1] (setting [9]); in [2] (setting [10]); in [3]) were 1.5 nM, 251 nM and 84.2 nM, respectively. Further, on gastrin receptor [1] (setting [11]), the “times less active on the gastrin receptor than XXa” value (shortened to “times less active”) is on record as 3 times. For the same compound, the “activity compared with reference compound XXa (gastrin-specific compounds)” value at gastrin receptor [1] (in words) is “similar”.
On to `O=C(Nc1ccc([N+](=O)[O-])cc1)NC1N=C(c2ccccc2)c2cccc3c2N(CCC3)C1=O` (racemic) [Example 8, (5R,S)-N-(keto-4-phenyl-7-hexahydro-1,2,3,3a,4,5-pyrido[3,2,1-j,k]benzodiazepine-[1,4]-yl-5)-N'-(nitro-4-phenyl-)-urea], for which the IC50 on gastrin receptor [1] (setting [9]) stood at 60 nM; in experiment [2] (setting [10]), 1810 nM; in experiment [3] it was 3080 nM.
As to `O=C1C(NC(=S)Nc2ccc(Br)cc2)N=C(c2ccccc2)c2cccc3c2N1CCC3` (racemic) [Example 10, (5R,S)-N-(keto-4-phenyl-7-hexahydro-1,2,3,3a,4,5-pyrido[3,2,1-j-k]benzodiazepine-[1,4]-yl-5)-N'-(bromo-4-phenyl-)-thiourea], it took a dose of 15.5 mg/kg to reach the 50% effect level in experiment [4] (ED50). Also, the “times more product required than XXa for 50% reduction of the inhibiting effects of CCK-8 on gastric evacuation” value in [4] (in comparison with XXa) turned out to be 100 times. Further, the IC50 stood at 3.2 nM on gastrin receptor [1] (setting [9]), 88 nM in [2] (setting [10]) and 3040 nM in [3]. Also, on gastrin receptor [1] (setting [11]), the “times less active” value turned out to be 1.5 times. Further, the “activity compared with reference compound XXa (gastrin-specific compounds)” value at gastrin receptor [1] (in words) is “similar”. For the same compound, the “Gastric secretion % inhibition” value in experiment [5] is recorded as 31%. Also, the “inhibiting activity on gastrin-induced acid secretion compared with XXa” value in experiment [5] (in words) is listed as “identical”.
`O=C(Nc1cnc2ccccc2c1)NC1N=C(c2ccccc2)c2cccc3c2N(CCC3)C1=O` (racemic) [Example 23, (5R,S)-N-(keto-4-phenyl-7-hexahydro-1,2,3,3a,4,5-pyrido[3,2,1-j,k]benzodiazepine[1,4]-yl-5)-N'-(quinolinyl-3-)-urea]: the IC50 at gastrin receptor [1] (setting [9]) was found to be 298 nM; in experiment [2] (setting [10]), 176 nM; in [3], 389 nM. At gastrin receptor [1] (setting [11]), the “times less active” value is roughly 60 times. Moreover, the “higher selectivity for the CCK B receptor than XXa” value in experiment [6] (setting [11]) is on record as roughly 30 times. The “factor less active on the CCK B receptor than XXa” value in experiment [2] (setting [11]) was 2 factor.
For the compound `O=C1C(NC(=S)Nc2ccc(Br)cc2)N=C(c2ccccc2)c2cccc3c2N1CCC3` (stereo in doubt) [Example 26, (5S)-N-(keto-4-phenyl-7-hexahydro-1,2,3,3a,4,5-pyrido[3,2,1-j,k]benzodiazepine[1,4]-yl-4)-N'-(bromo-4-phenyl-)-thiourea], the concentration for half-maximal inhibition (IC50) was 36 nM on gastrin receptor [1] (setting [9]), 137 nM in [2] (setting [10]) and greater than 10000 nM in experiment [3]. Besides, the “Selectivity GASTRIN/CCK A” value in the experiment on gastrin receptor [7] is on record as greater than 250. The “Selectivity CCK B/CCK A” value in experiment [6] is recorded as greater than 70.
On to `Cc1cccc(NC(=O)N[C@@H]2N=C(c3ccccc3)c3cccc4c3N(CC4)C2=O)c1` [Example 2, (4R)-N-(keto-3-phenyl-6-tetrahydro-1,2,3,4-pyrrolo[3,2,1-j,k]benzodiazepine-[1,4]-yl-4)-N'-(methyl-3-phenyl-)-urea], for which the IC50 came out at 85.9 nM on gastrin receptor [1] (setting [9]), 99.9 nM in experiment [2] (setting [10]) and 1020 nM in experiment [3]. The “times less active” value on gastrin receptor [1] (setting [11]) came out at 20 times. Moreover, the “activity on the CCK B receptor compared with XXa” value in experiment [2] (in words) is given as “of the same order”. Further, the “activity on the CCK A receptor compared with XXa” value in experiment [3] (in words) was “of the same order”.
On to `Cc1cccc(NC(=O)N[C@@H]2N=C(c3ccccc3)c3cccc4c3N(CCC4)C2=O)c1` [Example 7, (+)-(5R)-N-(keto-4-phenyl-7-hexahdyro-1,2,3,3a,4,5-pyrido [3,2,1-j,k]benzodiazepine[1,4]-yl-5)-N'-(methyl-3-phenyl-)-urea], for which the IC50 is 40.5 nM on gastrin receptor [1] (setting [9]), 255 nM in [2] (setting [10]) and 1730 nM in [3].
As for `Cc1cccc(NC(=O)N[C@@H]2N=C(c3ccccc3)c3ccccc3N(C)C2=O)c1` [XXa, reference compound], it took a dose of 0.15 mg/kg to reach the 50% effect level in [4] (ED50). For the same compound, the “gastrin activity, term of the CCK-A/gastrin ratio” value in the experiment on gastrin receptors is 1.9. Besides, the “CCK-A/gastrin activity ratio (times more favourable to gastrin receptors)” value in the experiment on gastrin receptors (ratio 290/1.9) is given as “about 150 times”. The IC50 at gastrin receptor [1] (read-out: IC50 Receptor bond Gastrin; guinea-pig gastric glands; Table I) was 4.7 nM; in experiment [2] (read-out: IC50 Receptor bond CCK B; guinea-pig brain membranes; Table I) it was 81.4 nM; in experiment [3] (rat pancreas plasma membranes, Table I, read-out: IC50 Receptor bond CCK A), 1420 nM. Besides, in the experiment with gastrin receptor [7], the “Selectivity GASTRIN/CCK A” value is recorded as 302. Further, in the experiment with gastrin receptor [7] (ratio 1419/4.7), the “CCK-A/gastrin activity ratio reproduced by the Applicant (times more favourable to gastrin receptors)” value is “about 300 times”. In [6], the “Selectivity CCK B/CCK A” value came out at 17. Also, the “Gastric secretion % inhibition” value in experiment [5] stood at 29%. Further, in experiment [8], the “CCK-A activity, term of the CCK-A/gastrin ratio” value is listed as 290.
